Laboratory results taken from patent US20260274856A1, “COVALENT CEREBLON LIGANDS” (C4 THERAPEUTICS, INC., priority 2023, published 2026).
Where two headings read alike, the source gives them in different places.

Legend:
mutant BRAF V600E = mutant BRAF V600E (Homo sapiens, UniProt P15056, V600E); assay: BRAF V600E HiBiT Degradation Assay in A375.10 cells; conditions: for HiBIT-Degradation A375.10 BRAF 2 hours IP nM / HiBIT-Degradation A375.10 BRAF 24 hours IP nM: inflection point of the dose-response curve
cellular cereblon (CRBN) = cellular cereblon (CRBN) (Homo sapiens, UniProt Q96SW2); assay: NanoBRET Target Engagement Assay, competition with pomalidomide tracer in 293T.116 cells; conditions: for NanoBRET TE 293T.116 CRBN 2 hours IP nM / NanoBRET TE 293T.116 CRBN 6 hours IP nM / NanoBRET TE 293T.116 CRBN 24 hours IP nM / IC50: 293T.116 cells
[1] = read-out: HIBIT-Degradation A375.10 BRAF 2 hours DC50 nM, 2 hours, A375.10 cells
[2] = read-out: HiBIT-Degradation A375.10 BRAF 2 hours Emax
[3] = read-out: HiBIT-Degradation A375.10 BRAF 24 hours DC50 nM, 24 hours, A375.10 cells
[4] = read-out: HiBIT-Degradation A375.10 BRAF 24 hours Emax
[5] = NanoBRET TE 293T.116 CRBN 2 hours IC50 nM, 2 hours incubation
[6] = NanoBRET TE 293T.116 CRBN 6 hours IC50 nM, 6 hours incubation
[7] = NanoBRET TE 293T.116 CRBN 24 hours IC50 nM, 24 hours incubation
[8] = read-out: NanoBRET TE 293T.116 CRBN 2 hours Emax
[9] = read-out: NanoBRET TE 293T.116 CRBN 6 hours Emax
[10] = read-out: NanoBRET TE 293T.116 CRBN 24 hours Emax

SMILES | HiBIT-Degradation A375.10 BRAF 24 hours IP nM (mutant BRAF V600E; 24 hours, A375.10 cells) | DC50 (mutant BRAF V600E; [3]) [nM] | Emax (mutant BRAF V600E; [4]) [%] | NanoBRET TE 293T.116 CRBN 6 hours IP nM (cellular cereblon (CRBN); 6 hours incubation) | NanoBRET TE 293T.116 CRBN 24 hours IP nM (cellular cereblon (CRBN); 24 hours incubation) | IC50 (cellular cereblon (CRBN); [6]) [nM] | IC50 (cellular cereblon (CRBN); [7]) [nM] | Emax (cellular cereblon (CRBN); [9]) [%] | Emax (cellular cereblon (CRBN); [10]) [%] | further results
CCN(C)S(=O)(=O)Nc1ccc(F)c(Oc2ccc3ncn([C@H]4COC5(CCN(C(=O)CN6CCC(c7ccc(NC8CCC(=O)NC8=O)cc7S(=O)(=O)F)CC6)CC5)C4)c(=O)c3c2)c1C#N (stereo partly drawn) [drawing 1197] | – | – | – | – | – | – | – | – | – | HiBIT-Degradation A375.10 BRAF 2 hours IP nM (mutant BRAF V600E; 2 hours, A375.10 cells): *** (<= 1 μM is); DC50 (mutant BRAF V600E; [1]): > 10000 nM; Emax (mutant BRAF V600E; [2]): 60 to 95%
CCN(C)S(=O)(=O)Nc1ccc(F)c(Oc2ccc3ncn([C@H]4COC5(CCN(C(=O)CN6CCN(c7ccc(C8CCC(=O)NC8=O)cc7OS(=O)(=O)F)CC6)CC5)C4)c(=O)c3c2)c1C#N (stereo partly drawn) [drawing 1199] | – | – | – | – | – | – | – | – | – | HiBIT-Degradation A375.10 BRAF 2 hours IP nM (mutant BRAF V600E; 2 hours, A375.10 cells): *** (<= 1 μM is); HiBIT-Degradation A375.10 BRAF 2 hours Emax (mutant BRAF V600E; 2 hours, A375.10 cells, residual protein remaining): *** (<= 60% is); DC50 (mutant BRAF V600E; [1]): > 10000 nM
CCN(C)S(=O)(=O)Nc1ccc(F)c(Oc2ccc3ncn([C@H]4COC5(CCN(C(=O)CN6CCN(c7ccc(C8CCC(=O)NC8=O)cc7OS(=O)(=O)F)CC6)CC5)C4)c(=O)c3c2)c1C#N (stereo partly drawn) [drawing 1191] | – | – | – | – | – | – | – | – | – | HiBIT-Degradation A375.10 BRAF 2 hours IP nM (mutant BRAF V600E; 2 hours, A375.10 cells): *** (<= 1 μM is); DC50 (mutant BRAF V600E; [1]): 1000 to 10000 nM; Emax (mutant BRAF V600E; [2]): < 60%
CCN(C)S(=O)(=O)Nc1ccc(F)c(Oc2ccc3ncn([C@H]4COC5(CCN(C(=O)CN6CCN(c7ccc(C8CCC(=O)NC8=O)cc7OS(=O)(=O)F)CC6)CC5)C4)c(=O)c3c2)c1C#N (stereo partly drawn) [drawing 1212] | *** (<= 1 μM is ***) | < 1000 | < 60 | – | – | – | – | – | – | –
CCN(C)S(=O)(=O)Nc1ccc(F)c(Oc2ccc3ncn([C@@H]4COC5(CCN(C(=O)CN6CCC(c7ccc(OC8CCC(=O)NC8=O)cc7OS(C)(=O)=O)CC6)CC5)C4)c(=O)c3c2)c1C#N (stereo partly drawn) [drawing 1206] | – | – | – | – | – | – | – | – | – | HiBIT-Degradation A375.10 BRAF 2 hours IP nM (mutant BRAF V600E; 2 hours, A375.10 cells): ** (<10 μM and >1 μM is **); DC50 (mutant BRAF V600E; [1]): > 10000 nM; Emax (mutant BRAF V600E; [2]): 60 to 95%
CCN(C)S(=O)(=O)Nc1ccc(F)c(Oc2ccc3ncn([C@H]4COC5(CCN(C(=O)CN6CCC(c7ccc(N8CCC(=O)NC8=O)cc7OS(C)(=O)=O)CC6)CC5)C4)c(=O)c3c2)c1C#N [drawing 1220] | *** (<= 1 μM is ***) | < 1000 | < 60 | – | – | – | – | – | – | –
CCN(C)S(=O)(=O)Nc1ccc(F)c(Oc2ccc3ncn([C@H]4COC5(CCN(C(=O)CN6CCC(c7ccc(NC8CCC(=O)NC8=O)cc7OS(C)(=O)=O)CC6)CC5)C4)c(=O)c3c2)c1C#N (stereo partly drawn) [drawing 1217] | *** (<= 1 μM is ***) | < 1000 | < 60 | – | – | – | – | – | – | –
CCN(C)S(=O)(=O)Nc1ccc(F)c(Oc2ccc3ncn([C@@H]4COC5(CCN(C(=O)CN6CCC(c7ccc(N8CCC(=O)NC8=O)cc7OS(=O)(=O)F)CC6)CC5)C4)c(=O)c3c2)c1C#N [drawing 1227] | ** (<10 μM and >1 μM is **) | 1000 to 10000 | < 60 | – | – | – | – | – | – | –
CCN(C)S(=O)(=O)Nc1ccc(F)c(Oc2ccc3ncn([C@@H]4COC5(CCN(C(=O)CN6CCC(c7ccc(OC8CCC(=O)NC8=O)cc7OS(C)(=O)=O)CC6)CC5)C4)c(=O)c3c2)c1C#N (stereo partly drawn) [drawing 1230] | ** (<10 μM and >1 μM is **) | > 10000 | < 60 | – | – | – | – | – | – | –
CCN(C)S(=O)(=O)Nc1ccc(F)c(Oc2ccc3ncn([C@@H]4COC5(CCN(C(=O)CN6CCC(c7ccc(N8CCC(=O)NC8=O)cc7OS(=O)(=O)F)CC6)CC5)C4)c(=O)c3c2)c1C#N [drawing 1192] | – | – | – | – | – | – | – | – | – | HiBIT-Degradation A375.10 BRAF 2 hours IP nM (mutant BRAF V600E; 2 hours, A375.10 cells): * (>=10 μM is *); DC50 (mutant BRAF V600E; [1]): > 10000 nM; Emax (mutant BRAF V600E; [2]): > 95%
CCN(C)S(=O)(=O)Nc1ccc(F)c(Oc2ccc3ncn([C@@H]4COC5(CCN(C(=O)CN6CCC(c7ccc(C8CCC(=O)NC8=O)cc7OS(C)(=O)=O)CC6)CC5)C4)c(=O)c3c2)c1C#N (stereo partly drawn) [drawing 1223] | *** (<= 1 μM is ***) | < 1000 | < 60 | – | – | – | – | – | – | –
CCN(C)S(=O)(=O)Nc1ccc(F)c(Oc2ccc3ncn([C@H]4COC5(CCN(C(=O)CN6CCC(c7ccc(OC8CCC(=O)NC8=O)cc7OS(C)(=O)=O)CC6)CC5)C4)c(=O)c3c2)c1C#N (stereo partly drawn) [drawing 1224] | *** (<= 1 μM is ***) | 1000 to 10000 | < 60 | – | – | – | – | – | – | –
O=C1CCN(c2ccc(OS(=O)(=O)F)cc2)C(=O)N1 [Compound A-15, 4-(2,4-dioxotetrahydropyrimidin-1(2H)-yl)phenyl sulfurofluoridate] | – | – | – | ** (<10 μM and >1 μM is **) | ** (<10 μM and >1 μM is **) | > 10000 | 1000 to 10000 | 50 to 80 | < 50 | NanoBRET TE 293T.116 CRBN 2 hours IP nM (cellular cereblon (CRBN); 2 hours incubation): ** (<10 μM and >1 μM is **); IC50 (cellular cereblon (CRBN); [5]): > 10000 nM; Emax (cellular cereblon (CRBN); [8]): 50 to 80%
O=C1CCN(c2ccc(N3CCNCC3)c(OS(=O)(=O)F)c2)C(=O)N1 [drawing 1142] | – | – | – | * (>=10 μM is *) | – | 1000 to 10000 | – | < 50 | – | –
O=C1CCC(Oc2ccc(S(=O)(=O)F)cn2)C(=O)N1 (stereo not drawn) [Compound A-9, 6-((2,6-dioxopiperidin-3-yl)oxy)pyridine-3-sulfonyl fluoride] | – | – | – | ** (<10 μM and >1 μM is **) | * (>=10 μM is *) | 1000 to 10000 | > 10000 | < 50 | 50 to 80 | –
O=C1CCC(c2cccc(OS(=O)(=O)F)c2)C(=O)N1 (stereo not drawn) [Compound A-23, 3-(2,6-dioxopiperidin-3-yl)phenyl sulfurofluoridate] | – | – | – | ** (<10 μM and >1 μM is **) | ** (<10 μM and >1 μM is **) | 1000 to 10000 | 1000 to 10000 | < 50 | < 50 | –
Cn1nc(N2CCC(=O)NC2=O)c2cccc(S(=O)(=O)F)c21 [Compound A-10, 3-(2,4-dioxotetrahydropyrimidin-1(2H)-yl)-1-methyl-1H-indazole-7-sulfonyl fluoride] | – | – | – | *** (<= 1 μM is ***) | *** (<= 1 μM is ***) | < 1000 | < 1000 | < 50 | < 50 | NanoBRET TE 293T.116 CRBN 2 hours IP nM (cellular cereblon (CRBN); 2 hours incubation): *** (<= 1 μM is ***); IC50 (cellular cereblon (CRBN); [5]): < 1000 nM; Emax (cellular cereblon (CRBN); [8]): < 50%
COc1cc(OC2CCC(=O)NC2=O)cc(OS(=O)(=O)F)c1 (stereo not drawn) [Compound A-21, 3-(3-fluorosulfonyloxy-5-methoxy-phenoxy)-2,6-dioxo-piperidine] | – | – | – | *** (<= 1 μM is ***) | ** (<10 μM and >1 μM is **) | < 1000 | 1000 to 10000 | < 50 | < 50 | –
O=C1NC(=O)C2(Nc3ccc(S(=O)(=O)F)cc3)CC1C2 [Compound A-33, 4-((2,4-dioxo-3-azabicyclo[3.1.1]heptan-1-yl)amino)benzenesulfonyl fluoride] | – | – | – | ** (<10 μM and >1 μM is **) | ** (<10 μM and >1 μM is **) | 1000 to 10000 | 1000 to 10000 | < 50 | < 50 | NanoBRET TE 293T.116 CRBN 2 hours IP nM (cellular cereblon (CRBN); 2 hours incubation): ** (<10 μM and >1 μM is **); IC50 (cellular cereblon (CRBN); [5]): 1000 to 10000 nM; Emax (cellular cereblon (CRBN); [8]): < 50%
CN(c1cccc(OS(=O)(=O)F)c1)C1CCC(=O)NC1=O (stereo not drawn) [Compound A-18, 3-((2,6-dioxopiperidin-3-yl)(methyl)amino)phenyl sulfurofluoridate] | – | – | – | * (>=10 μM is *) | ** (<10 μM and >1 μM is **) | 1000 to 10000 | 1000 to 10000 | < 50 | < 50 | NanoBRET TE 293T.116 CRBN 2 hours IP nM (cellular cereblon (CRBN); 2 hours incubation): ** (<10 μM and >1 μM is **); IC50 (cellular cereblon (CRBN); [5]): 1000 to 10000 nM; Emax (cellular cereblon (CRBN); [8]): < 50%
O=C1CCC(c2ccc(OS(=O)(=O)F)cc2)C(=O)N1 (stereo not drawn) [Compound A-25, 4-(2,6-dioxopiperidin-3-yl)phenyl sulfurofluoridate] | – | – | – | *** (<= 1 μM is ***) | *** (<= 1 μM is ***) | < 1000 | < 1000 | < 50 | < 50 | –
